Broadly, the IC50 is the midpoint of a concentration-inhibition curve.

Molecules are shown by their SMILES. A value given as a limit tells only on which side of the number the result lay.

The text below walks through data of patent US8329726B2, “Inhibitors of VEGF receptor and HGF receptor signaling” (MethylGene Inc., priority 2005, dated 2012).

Assay [1] deals with DU145. The experiment in a line: DU145 scattering inhibition (HGF dependent scattering). In kind it is cell-based. The conditions noted are these: Homo sapiens, DU-145; HGF dependent scattering, DU145 cells; read-out: DU145 SCATTERING INHIB IC50. The source says: (§1) HGF has well known activity in terms of inducing scattering and migration (wound healing) (Wells et al., Cell Motil Cytoskeleton. 2005 November 62(3):180-94; Miura et al., Urology 2001 December 58(6):1064-9; Nishimura et al., Int J Urol. 1998 May 5(3):276-81; Wang et al., Mol Cancer Ther. 2003 November; 2(11):1085-92; and Christensen et al., Cancer Res. 2003 Nov. 1; 63(21):7345-55).

The test system of assay [2] is A549. The experiment in a line: A549 wound healing inhibition (HGF dependent migration). The format is cell-based. The conditions noted are these: Homo sapiens, A549 cells, read-out: A549 WOUND HEALING INHIB IC50.
Description: as §1

For assay [3], the target named is T1, VEGF receptor KDR (Homo sapiens, UniProt P35968).
T1 construct: made in house; host or cells: Sf9 cells (Spodoptera frugiperda), baculovirus
T1 sequence (P35968 806-1356): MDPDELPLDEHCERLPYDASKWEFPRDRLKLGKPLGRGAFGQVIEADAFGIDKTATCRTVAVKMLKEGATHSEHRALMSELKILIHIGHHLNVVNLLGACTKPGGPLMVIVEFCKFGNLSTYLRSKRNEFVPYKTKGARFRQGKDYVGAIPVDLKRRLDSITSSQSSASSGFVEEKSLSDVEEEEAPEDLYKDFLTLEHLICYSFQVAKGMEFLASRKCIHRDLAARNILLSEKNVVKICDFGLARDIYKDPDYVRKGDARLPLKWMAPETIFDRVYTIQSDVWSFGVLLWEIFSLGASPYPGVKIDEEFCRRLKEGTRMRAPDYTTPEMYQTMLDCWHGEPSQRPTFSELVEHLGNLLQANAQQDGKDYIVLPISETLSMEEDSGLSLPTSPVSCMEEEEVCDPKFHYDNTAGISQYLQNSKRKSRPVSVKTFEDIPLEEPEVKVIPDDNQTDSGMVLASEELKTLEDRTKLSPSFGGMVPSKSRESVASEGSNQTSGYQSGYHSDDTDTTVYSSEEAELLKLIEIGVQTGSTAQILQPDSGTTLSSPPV
Put plainly: In vitro receptor tyrosine kinase assay (DELFIA), VEGF receptor KDR. In kind it is biochemical. To be noted: read-out: VEGFR IC50.

Assay [4] addresses T2, recombinant human c-Met/HGF receptor (Homo sapiens, UniProt P08581).
T2 construct: His tag (pBlueBacHis2A vector); made in house; host or cells: Hi-5 cells (Trichoplusia ni), baculovirus
Put plainly: In vitro receptor tyrosine kinase assay (DELFIA), c-Met/HGF receptor. To be noted: read-out: CMET IC50. In kind it is biochemical. The protocol: Cell pellets were frozen at −80° C. until purification was performed.
The coated plates were washed and stored at 4° C. […] After incubation, the kinase reactions were quenched with EDTA and the plates were washed.

T2 sequence (P08581 1078-1337): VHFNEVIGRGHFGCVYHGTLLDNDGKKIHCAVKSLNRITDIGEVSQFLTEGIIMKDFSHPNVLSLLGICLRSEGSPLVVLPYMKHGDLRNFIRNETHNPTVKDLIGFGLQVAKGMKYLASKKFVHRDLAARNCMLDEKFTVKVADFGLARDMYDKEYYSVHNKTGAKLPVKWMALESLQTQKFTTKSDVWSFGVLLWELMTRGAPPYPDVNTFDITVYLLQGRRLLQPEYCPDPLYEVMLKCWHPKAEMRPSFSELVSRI

Take `CNCCn1cnc(-c2cc3nccc(Oc4ccc(NC(=O)CC(=O)Nc5ccccc5OC)cc4F)c3s2)c1`: the IC50 is 1000 to 5000 nM in assay [1], 1000 to 5000 nM in assay [2], less than 50 nM in assay [3] and 50 to 250 nM in assay [4].

Regarding `CN(C)CCCN(C)Cc1ccc(-c2cc3nccc(Oc4ccc(NC(=O)CC(=O)N(C)c5ccccc5)cc4F)c3s2)cc1`, the IC50 was less than 1000 nM in assay [1], less than 1000 nM in assay [2], less than 50 nM in assay [3] and less than 50 nM in assay [4].

Regarding `CN(C)Cc1ccc(-c2cc3nccc(Oc4ccc(NC(=O)N5CCN(c6ccc(F)cc6)C5=O)cc4F)c3s2)nc1`, the IC50 in assay [1] was less than 1000 nM; in assay [2] it was less than 1000 nM; in assay [3] it was less than 50 nM; in assay [4], less than 50 nM.

Consider `CN(C)CC/C=C\c1cc2nccc(Oc3ccc(NC(=O)CC(=O)N(C)c4ccccc4)cc3F)c2s1`, for which the IC50 in assay [1] lay in the range of 1000 to 5000 nM; in assay [2] it was 1000 to 5000 nM; in assay [3] it was 50 to 250 nM; in assay [4] it was 50 to 250 nM.

`CN1CC=C(c2cc3nccc(Oc4ccc(NC(=O)N5CCN(c6ccccc6)C5=O)cc4F)c3s2)CC1`: the IC50 in assay [1] was less than 1000 nM; in assay [2] it was less than 1000 nM; in assay [3], 50 to 250 nM; in assay [4] it was less than 50 nM.

As for `CC(C)N(C(=O)CC(=O)Nc1ccc(Oc2ccnc3cc(C4=CCN(C)CC4)sc23)c(F)c1)c1ccccc1`, the IC50 in assay [1] is greater than 10000 nM; in assay [2], greater than 10000 nM; in assay [3], greater than 500 nM; in assay [4], 250 to 500 nM.

With `CCn1ccnc1-c1cc2nccc(Oc3ccc(NC(=O)N4CCN(c5ccccc5)C4=O)cc3F)c2s1`, the IC50 is less than 1000 nM in assay [1], less than 1000 nM in assay [2], less than 50 nM in assay [3] and less than 50 nM in assay [4].

`Cn1cnc(-c2cc3nccc(Oc4ccc(NC(=O)N5CCN(c6ccccc6)C5=O)cc4)c3s2)c1`: the IC50 in assay [1] is less than 1000 nM; in assay [2] it was less than 1000 nM; in assay [3], 50 to 250 nM; in assay [4], less than 50 nM.

`COc1cccc(Nc2cc3nccc(Oc4ccc(NC(=O)CC(=O)Nc5ccccc5)cc4F)c3s2)c1`: the IC50 is 1000 to 5000 nM in assay [1], 1000 to 5000 nM in assay [2], greater than 500 nM in assay [3] and 50 to 250 nM in assay [4].

As for `Cn1cnc(-c2cc3nccc(Oc4ccc(NC(=O)N5CCN(N6CCCCC6)C5=O)cc4F)c3s2)c1`, the IC50 in assay [1] was less than 1000 nM; in assay [2], 1000 to 5000 nM; in assay [3], 50 to 250 nM; in assay [4], less than 50 nM.

On to `Cn1cncc1-c1cc2nccc(Oc3ccc(NC(=O)CC(=O)Nc4ccccc4)cc3F)c2s1` [drawing 288], for which the IC50 in assay [1] is less than 1000 nM; in assay [2], less than 1000 nM; in assay [3], less than 50 nM; in assay [4] it was less than 50 nM.

Consider `CN1CCN(Cc2ccc(-c3cc4ncnc(Oc5ccc(NC(=O)CC(=O)Nc6ccccc6)cc5F)c4s3)cc2)CC1`, for which the 50% inhibitory concentration (IC50) in assay [1] is 1000 to 5000 nM; in assay [2] it was greater than 10000 nM; in assay [3] it was less than 50 nM; in assay [4], 50 to 250 nM.

As to `CN1CCN(Cc2ccc(-c3cc4nccc(Oc5ccc(NC(=O)C6CCN(c7ccccc7)C6=O)cc5F)c4s3)nc2)CC1` (stereo not drawn), the IC50 was 1000 to 5000 nM in assay [1], 1000 to 5000 nM in assay [2], less than 50 nM in assay [3] and 50 to 250 nM in assay [4].

For `CN1CCN(Cc2ccc(-c3cc4nccc(Oc5ccc(NC(=O)C6(C(=O)Nc7ccccc7)CC6)cc5F)c4s3)cc2)CC1`, the IC50 in assay [1] was less than 1000 nM; in assay [2], less than 1000 nM; in assay [3], less than 50 nM; in assay [4], less than 50 nM.

With `Cn1cnc(-c2cc3nccc(Oc4ccc(NC(CC(=O)Nc5ccc(F)cc5)C(F)(F)F)cc4)c3s2)c1` (stereo not drawn), the IC50 in assay [1] is 1000 to 5000 nM; in assay [2] it was 1000 to 5000 nM; in assay [3], less than 50 nM; in assay [4], 50 to 250 nM.

In the case of `CCn1cnc(-c2cc3nccc(Oc4ccc(NC(=O)CC(=O)N5CCc6ccccc65)cc4F)c3s2)c1`, the 50% inhibitory concentration (IC50) in assay [1] is less than 1000 nM; in assay [2], less than 1000 nM; in assay [3], less than 50 nM; in assay [4], less than 50 nM.

Regarding `COc1ccccc1NC(=O)CC(=O)Nc1ccc(Oc2ccnc3cc(-c4cccc(OCCCNC(=N)N)c4)sc23)c(F)c1`, the IC50 in assay [1] is greater than 10000 nM; in assay [2], 1000 to 5000 nM; in assay [3] it was greater than 500 nM; in assay [4], 50 to 250 nM.

Consider `O=C(Nc1ccc(Oc2ccnc3cc(-c4cn(CCCN5CCCC5)cn4)sc23)c(F)c1)N1CCN(c2ccc(F)cc2)C1=O`, for which the IC50 in assay [1] was less than 1000 nM; in assay [2], less than 1000 nM; in assay [3], less than 50 nM; in assay [4], less than 50 nM.

In the case of `O=C(Nc1ccc(Oc2ccnc3cc(-c4ccc(CN5CCNCC5)cc4)sc23)c(F)c1)N1CCN(c2ccccc2)C1=O`, the IC50 in assay [1] is less than 1000 nM; in assay [2], less than 1000 nM; in assay [3], less than 50 nM; in assay [4], less than 50 nM.

As to `CCn1cnc(-c2cc3nccc(Oc4ccc(NC(=O)C5(C(=O)Nc6ccccc6)CC5)cc4F)c3s2)c1` [drawing 317], the IC50 was less than 1000 nM in assay [1], less than 1000 nM in assay [2], less than 50 nM in assay [3] and less than 50 nM in assay [4].

In the case of `CC(=O)N1CC=C(c2cc3nccc(Oc4ccc(NC(=O)N5CCN(c6ccc(F)cc6)C5=O)cc4F)c3s2)CC1`, the IC50 in assay [1] was less than 1000 nM; in assay [2], less than 1000 nM; in assay [3], less than 50 nM; in assay [4], less than 50 nM.

For the compound `CN(C)Cc1cccc(-c2cc3nccc(Oc4ccc(NC(=O)CC(=O)Nc5ccccc5F)cc4F)c3s2)c1` [drawing 316], the IC50 in assay [1] was less than 1000 nM; in assay [2], 1000 to 5000 nM; in assay [3], 50 to 250 nM; in assay [4] it was less than 50 nM.

As to `CCn1cnc(-c2cc3nccc(Oc4ccc(NC(=O)CC(Nc5ccccc5)C(F)(F)F)cc4F)c3s2)c1` (stereo not drawn), the half-maximal inhibitory concentration (IC50) in assay [1] lay within 1000 to 5000 nM; in assay [2], 1000 to 5000 nM; in assay [3], 50 to 250 nM; in assay [4] it was 50 to 250 nM.

On to `COc1ccccc1NC(=O)CC(=O)Nc1ccc(Oc2ccnc3cc(-c4cn(C(C)C)cn4)sc23)c(F)c1`, for which the IC50 in assay [1] was less than 1000 nM; in assay [2], less than 1000 nM; in assay [3], less than 50 nM; in assay [4], less than 50 nM.

With `CCn1cc(-c2cc3nccc(Oc4ccc(NC(=O)CC(=O)Nc5ccccc5OC)cc4F)c3s2)nc1C`, the 50% inhibitory concentration (IC50) in assay [1] was less than 1000 nM; in assay [2] it was less than 1000 nM; in assay [3], less than 50 nM; in assay [4] it was 50 to 250 nM.

In the case of `CCn1cnc(-c2cc3nccc(Oc4ccc(NC(=O)C5(C(=O)N(C)c6ccc(F)cc6)CC5)cc4F)c3s2)c1`, the IC50 was greater than 10000 nM in assay [1], greater than 10000 nM in assay [2], less than 50 nM in assay [3] and 250 to 500 nM in assay [4].

As to `Cn1cnc(-c2cc3nccc(Nc4ccc(NC(=O)C5CCN(c6ccccc6)C5=O)cc4F)c3s2)c1` (stereo not drawn), the 50% inhibitory concentration (IC50) in assay [1] was 1000 to 5000 nM; in assay [2], less than 1000 nM; in assay [3], 250 to 500 nM; in assay [4], 50 to 250 nM.

`CN(c1ccc(NC(=O)C2CCN(c3ccccc3)C2=O)cc1F)c1ccnc2cc(-c3cn(C)cn3)sc12` (stereo not drawn): the concentration for half-maximal inhibition (IC50) in assay [1] was 1000 to 5000 nM; in assay [2], 1000 to 5000 nM; in assay [3] it was greater than 500 nM; in assay [4], 50 to 250 nM.

On to `CN1CC=C(c2cc3nccc(Oc4ccc(NC(=O)C5(C(=O)Nc6ccccc6)CC5)cc4F)c3s2)CC1`, for which the IC50 in assay [1] was less than 1000 nM; in assay [2] it was 1000 to 5000 nM; in assay [3], less than 50 nM; in assay [4] it was less than 50 nM.

Turning to `CCCn1cnc(-c2cc3nccc(Oc4ccc(NC(=O)CC(=O)Nc5cccc(F)c5)cc4F)c3s2)c1`, the IC50 in assay [1] is less than 1000 nM; in assay [2] it was 1000 to 5000 nM; in assay [3], less than 50 nM; in assay [4] it was 50 to 250 nM.

For `CN1CCN(CCN(C)Cc2ccc(-c3cc4nccc(Oc5ccc(NC(=O)CC(=O)Nc6ccc(F)cc6)cc5F)c4s3)cc2)CC1`, the IC50 in assay [1] was less than 1000 nM; in assay [2], less than 1000 nM; in assay [3], less than 50 nM; in assay [4], less than 50 nM.

As to `COc1ccccc1NC(=O)CC(=O)Nc1ccc(Oc2ccnc3cc(C#CCN(C)C)sc23)c(F)c1`, the IC50 was greater than 10000 nM in assay [1], greater than 10000 nM in assay [2], 50 to 250 nM in assay [3] and 50 to 250 nM in assay [4].

For `O=C(CC(=O)Nc1ccc(Oc2ccnc3cc(-c4cn(CCO)cn4)sc23)c(F)c1)Nc1ccccc1`, the IC50 in assay [1] was less than 1000 nM; in assay [2], less than 1000 nM; in assay [3], less than 50 nM; in assay [4], less than 50 nM.

As to `Cn1cnc(-c2cc3nccc(Oc4ccc(NC(=O)C5(C(=O)Nc6ccccc6)CC5)cc4F)c3s2)c1`, the IC50 in assay [1] is less than 1000 nM; in assay [2] it was less than 1000 nM; in assay [3] it was less than 50 nM; in assay [4], less than 50 nM.

As for `Cn1cncc1-c1cc2nccc(Oc3ccc(NC(=O)CC(=O)Nc4ccccc4O)cc3F)c2s1`, the half-maximal inhibitory concentration (IC50) in assay [1] was 1000 to 5000 nM; in assay [2], greater than 10000 nM; in assay [3], less than 50 nM; in assay [4], 50 to 250 nM.

As to `CCN(C(=O)CC(=O)Nc1ccc(Oc2ccnc3cc(-c4cn(CC)cn4)sc23)c(F)c1)c1ccccc1`, the IC50 in assay [1] is 1000 to 5000 nM; in assay [2], 1000 to 5000 nM; in assay [3], less than 50 nM; in assay [4] it was 50 to 250 nM.
